Measurements as given in PubChem BioAssay (NCI).
“And” between values parts separate entries of the source, which are not always exact repeats. Equal values may be shown once.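 Growth conditions: 96-well plates. Treatment: test compound, 48 hours, 5 concentrations. Analysis: linear interpolation between bracketing concentrations; unreached endpoints set to highest concentration. GI50: concentration for 50% inhibition of growth. TGI denotes the concentration required for complete inhibition of growth.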

What was measured:
Assay in all cases: DTP human tumour cell line panel, 48 h
HL-60(TB) leukemia = test system: HL-60(TB) leukemia
HT29 colon = test system: HT29 colon
MALME-3M melanoma = test system: MALME-3M melanoma
DLD-1 colon = test system: DLD-1 colon
LXFL 529 NSCLC = test system: LXFL 529 NSCLC
UO-31 renal = test system: UO-31 renal
SK-OV-3 ovarian = test system: SK-OV-3 ovarian
HCT-15 colon = test system: HCT-15 colon
DU-145 prostate = test system: DU-145 prostate
MCF7 breast = test system: MCF7 breast

C=CCn1c(=S)sc2c(C(=O)OCC)c3c(C)cc(C)cn3c2c1=O
TGI (HL-60(TB) leukemia): > 100 µM | TGI (HT29 colon): > 100 µM | TGI (MALME-3M melanoma): > 100 µM | TGI (DLD-1 colon): > 100 µM | TGI (LXFL 529 NSCLC): > 100 µM | TGI (UO-31 renal): > 100 µM | TGI (SK-OV-3 ovarian): > 100 µM | TGI (HCT-15 colon): > 100 µM

Cc1ccc(S(=O)(=O)N/N=C(\c2nc3ccc(Cl)cc3[nH]c2=O)C(O)c2ccco2)cc1 (configuration not stated)
TGI (HL-60(TB) leukemia): > 100 µM | TGI (HT29 colon): > 100 µM | TGI (MALME-3M melanoma): > 100 µM | TGI (DLD-1 colon): > 100 µM | TGI (LXFL 529 NSCLC): > 100 µM | TGI (HCT-15 colon): > 100 µM

O=c1cc(-c2ccccn2)[nH]c2cccc(F)c12
TGI (HL-60(TB) leukemia): > 100 µM | TGI (HT29 colon): > 100 µM | TGI (DLD-1 colon): > 100 µM | TGI (LXFL 529 NSCLC): > 100 µM | TGI (UO-31 renal): > 100 µM | TGI (SK-OV-3 ovarian): > 100 µM

CCCn1c(SCCSc2c3ccccc3c(-c3nc(F)nc(F)n3)n2CCC)c2ccccc2c1-c1nc(F)nc(F)n1
TGI (HL-60(TB) leukemia): > 100 µM | TGI (HT29 colon): > 100 µM | TGI (MALME-3M melanoma): > 100 µM | TGI (DLD-1 colon): 40.4 µM | TGI (LXFL 529 NSCLC): > 100 µM | TGI (UO-31 renal): > 100 µM | TGI (SK-OV-3 ovarian): > 100 µM | TGI (HCT-15 colon): > 100 µM

Cc1c(C(=O)C/C(=N/NC(=O)c2ccccc2)C(=O)Nc2ccc(Cl)cc2)[n+](=O)c2ccccc2n1[O-]
TGI (HL-60(TB) leukemia): 56.4 µM | TGI (HT29 colon): > 100 µM | TGI (MALME-3M melanoma): > 100 µM | TGI (DLD-1 colon): > 100 µM | TGI (LXFL 529 NSCLC): > 100 µM | TGI (SK-OV-3 ovarian): > 100 µM | TGI (HCT-15 colon): > 100 µM

O=C(/C=C(\O)C(=O)O)/C=C(\O)c1ccccc1
GI50 (HL-60(TB) leukemia): > 1 µM | TGI (HL-60(TB) leukemia): > 100 µM | GI50 (HT29 colon): > 1 µM | TGI (HT29 colon): > 100 µM | GI50 (MALME-3M melanoma): > 100 µM | TGI (MALME-3M melanoma): > 100 µM | TGI (DLD-1 colon): > 100 µM | GI50 (LXFL 529 NSCLC): > 1 µM | TGI (LXFL 529 NSCLC): > 100 µM | GI50 (UO-31 renal): > 1 µM | TGI (UO-31 renal): > 1 µM | GI50 (SK-OV-3 ovarian): > 1 µM | TGI (SK-OV-3 ovarian): > 100 µM | GI50 (HCT-15 colon): > 1 µM | TGI (HCT-15 colon): > 100 µM

Cc1cc2c(c(C(N)=O)c1C)-c1cccc(F)c1C2=O
TGI (HT29 colon): > 100 µM | TGI (MALME-3M melanoma): > 100 µM | TGI (DLD-1 colon): > 100 µM | TGI (LXFL 529 NSCLC): > 100 µM | TGI (UO-31 renal): > 100 µM | TGI (SK-OV-3 ovarian): > 100 µM | TGI (HCT-15 colon): > 100 µM

N#C/C(=C1\SCC(=O)N1c1ccccc1)c1nc2ccccc2[nH]1
TGI (HL-60(TB) leukemia): > 100 µM | TGI (HT29 colon): > 100 µM | TGI (MALME-3M melanoma): > 100 µM | TGI (DLD-1 colon): > 100 µM | TGI (LXFL 529 NSCLC): > 100 µM | TGI (UO-31 renal): > 100 µM | TGI (SK-OV-3 ovarian): > 100 µM | TGI (HCT-15 colon): > 100 µM

CCOC(=O)NC(=O)c1cn(CCN2CCN(C(=O)CNC(=O)CNC(=O)Cn3cc(C(=O)NC(=O)OCC)c(=O)[nH]c3=O)CC2)c(=O)[nH]c1=O
TGI (HL-60(TB) leukemia): > 100 µM | TGI (HT29 colon): > 100 µM | TGI (MALME-3M melanoma): > 100 µM | TGI (DLD-1 colon): > 100 µM | TGI (LXFL 529 NSCLC): > 100 µM | TGI (UO-31 renal): > 100 µM | TGI (SK-OV-3 ovarian): > 100 µM | TGI (HCT-15 colon): > 100 µM

[N-]=[N+]=NC(c1cn(C2CC(O)C(CO)O2)c(=O)[nH]c1=O)C(Cl)Br (configuration not stated)
TGI (HL-60(TB) leukemia): > 100 µM | TGI (HT29 colon): > 100 µM | TGI (MALME-3M melanoma): > 100 µM | TGI (DLD-1 colon): > 100 µM | TGI (LXFL 529 NSCLC): > 100 µM | TGI (UO-31 renal): > 100 µM | TGI (HCT-15 colon): > 100 µM

C=CC(=O)N1C/C(=C\c2ccc(Cl)c(Cl)c2)C(=O)/C(=C/c2ccc(Cl)c(Cl)c2)C1
TGI (HT29 colon): 0.323 µM | TGI (DLD-1 colon): 0.154 µM | TGI (LXFL 529 NSCLC): 0.345 µM | TGI (UO-31 renal): 0.528 µM | TGI (SK-OV-3 ovarian): 1.61 µM | TGI (HCT-15 colon): 0.201 µM

[2H]C([2H])([2H])NC(=O)c1nnc(NC(=O)C2CC2)cc1Nc1cccc(-c2ncn(C)n2)c1OC
GI50 (HL-60(TB) leukemia): 14 µM | TGI (HL-60(TB) leukemia): 82.6 µM | GI50 (HT29 colon): 44.6 µM | TGI (HT29 colon): > 100 µM | GI50 (MALME-3M melanoma): 98 µM | TGI (MALME-3M melanoma): > 100 µM | GI50 (UO-31 renal): 5.93 µM | TGI (UO-31 renal): 60.4 µM | GI50 (SK-OV-3 ovarian): 5.02 µM | TGI (SK-OV-3 ovarian): 48.9 µM | GI50 (HCT-15 colon): 15.5 µM | TGI (HCT-15 colon): > 100 µM | GI50 (DU-145 prostate): 14.9 µM | TGI (DU-145 prostate): > 100 µM | GI50 (MCF7 breast): 92.9 µM | TGI (MCF7 breast): > 100 µM

O=C(O)C[C@H](O)C[C@H](O)/C=C/c1c(C2CC2)nc2ccccc2c1-c1ccc(F)cc1
GI50 (HL-60(TB) leukemia): 4.55 µM and 25.6 µM | TGI (HL-60(TB) leukemia): > 100 µM | GI50 (HT29 colon): 62.2 µM and 8.24 µM | TGI (HT29 colon): > 100 µM | GI50 (MALME-3M melanoma): > 100 µM | TGI (MALME-3M melanoma): > 100 µM | GI50 (UO-31 renal): 16 µM and 3.48 µM | TGI (UO-31 renal): > 100 µM | GI50 (SK-OV-3 ovarian): 26.1 µM and 6.6 µM | TGI (SK-OV-3 ovarian): > 100 µM | GI50 (HCT-15 colon): 6.16 µM and 0.616 µM | TGI (HCT-15 colon): > 100 µM | GI50 (DU-145 prostate): > 100 µM and 31 µM | TGI (DU-145 prostate): > 100 µM | GI50 (MCF7 breast): 54.7 µM and > 21.9 µM | TGI (MCF7 breast): > 100 µM

N#Cc1nc(-c2ccc(F)cc2)oc1S(=O)(=O)N1CCCCC1
GI50 (HL-60(TB) leukemia): 2.54 µM | TGI (HL-60(TB) leukemia): 7.02 µM | GI50 (HT29 colon): 2.4 µM | TGI (HT29 colon): 5.42 µM | GI50 (MALME-3M melanoma): 1.69 µM | TGI (MALME-3M melanoma): 3.37 µM | GI50 (UO-31 renal): 1.58 µM | TGI (UO-31 renal): 2.93 µM | GI50 (SK-OV-3 ovarian): 24.3 µM | TGI (SK-OV-3 ovarian): 91.2 µM | GI50 (HCT-15 colon): 1.59 µM | TGI (HCT-15 colon): 3.37 µM | GI50 (DU-145 prostate): 1.81 µM | TGI (DU-145 prostate): 3.24 µM | GI50 (MCF7 breast): 1.69 µM | TGI (MCF7 breast): 3.82 µM

C=CC(=O)N1CCC(c2ccc(C(N)=O)c(-c3ccc(Oc4ccccc4)cc3)n2)CC1
GI50 (HL-60(TB) leukemia): 19.5 µM | TGI (HL-60(TB) leukemia): 58.8 µM | GI50 (HT29 colon): 46.7 µM | TGI (HT29 colon): > 100 µM | GI50 (MALME-3M melanoma): 36.1 µM | TGI (MALME-3M melanoma): > 100 µM | GI50 (UO-31 renal): 12.9 µM | TGI (UO-31 renal): > 100 µM | GI50 (SK-OV-3 ovarian): 23.4 µM | TGI (SK-OV-3 ovarian): > 100 µM | GI50 (HCT-15 colon): 25.2 µM | TGI (HCT-15 colon): > 100 µM | GI50 (DU-145 prostate): 31.7 µM | TGI (DU-145 prostate): > 100 µM | GI50 (MCF7 breast): 22.7 µM | TGI (MCF7 breast): > 100 µM

Nc1ccn(C2CC(F)C(CO)O2)c(=O)n1 (configuration not stated)
GI50 (HL-60(TB) leukemia): > 100 µM | TGI (HL-60(TB) leukemia): > 100 µM | GI50 (HT29 colon): > 100 µM | TGI (HT29 colon): > 100 µM | GI50 (MALME-3M melanoma): > 100 µM | TGI (MALME-3M melanoma): > 100 µM | GI50 (UO-31 renal): > 100 µM | TGI (UO-31 renal): > 100 µM | GI50 (SK-OV-3 ovarian): > 100 µM | TGI (SK-OV-3 ovarian): > 100 µM | GI50 (HCT-15 colon): > 100 µM | TGI (HCT-15 colon): > 100 µM | GI50 (DU-145 prostate): > 100 µM | TGI (DU-145 prostate): > 100 µM | GI50 (MCF7 breast): > 100 µM | TGI (MCF7 breast): > 100 µM

C/C(CC(=O)NCCc1ccccc1)=N\NS(=O)(=O)c1ccc(C)cc1
TGI (HL-60(TB) leukemia): > 100 µM | TGI (HT29 colon): > 100 µM | TGI (MALME-3M melanoma): > 100 µM | TGI (DLD-1 colon): > 100 µM | TGI (LXFL 529 NSCLC): > 100 µM | TGI (UO-31 renal): > 100 µM | TGI (SK-OV-3 ovarian): > 100 µM

COc1cc(-c2nc3ccccc3s2)ccc1OCCCCOc1cc2c(cc1OC)C(=O)N1CCC[C@H]1C=N2
GI50 (HL-60(TB) leukemia): 0.93 µM | TGI (HL-60(TB) leukemia): 4.98 µM | GI50 (HT29 colon): 0.724 µM | TGI (HT29 colon): 7.14 µM | GI50 (MALME-3M melanoma): 1.55 µM | TGI (MALME-3M melanoma): 3.46 µM | GI50 (UO-31 renal): 1.17 µM | TGI (UO-31 renal): 4.06 µM | GI50 (SK-OV-3 ovarian): 2.66 µM | TGI (SK-OV-3 ovarian): 5.44 µM | GI50 (HCT-15 colon): 1.7 µM | TGI (HCT-15 colon): 4.46 µM | GI50 (DU-145 prostate): 0.832 µM | TGI (DU-145 prostate): 6.06 µM | GI50 (MCF7 breast): 0.471 µM | TGI (MCF7 breast): 3.57 µM

OC1(c2ccccc2)C2CC=CC2C1(c1ccccc1)c1ccccc1 (configuration not stated)
TGI (HL-60(TB) leukemia): 95.7 µM | TGI (HT29 colon): 69.8 µM | TGI (MALME-3M melanoma): 53 µM | TGI (UO-31 renal): > 100 µM | TGI (SK-OV-3 ovarian): > 100 µM | TGI (HCT-15 colon): > 100 µM | TGI (DU-145 prostate): > 100 µM | TGI (MCF7 breast): 79.4 µM
